According to the Kinase Knowledgebase extract (Sharma et al. 2016):
pIC50: −log10 of the molar value.

Target: EGFR (UniProt P00533)
Sequence (P00533 whole entry, looked up): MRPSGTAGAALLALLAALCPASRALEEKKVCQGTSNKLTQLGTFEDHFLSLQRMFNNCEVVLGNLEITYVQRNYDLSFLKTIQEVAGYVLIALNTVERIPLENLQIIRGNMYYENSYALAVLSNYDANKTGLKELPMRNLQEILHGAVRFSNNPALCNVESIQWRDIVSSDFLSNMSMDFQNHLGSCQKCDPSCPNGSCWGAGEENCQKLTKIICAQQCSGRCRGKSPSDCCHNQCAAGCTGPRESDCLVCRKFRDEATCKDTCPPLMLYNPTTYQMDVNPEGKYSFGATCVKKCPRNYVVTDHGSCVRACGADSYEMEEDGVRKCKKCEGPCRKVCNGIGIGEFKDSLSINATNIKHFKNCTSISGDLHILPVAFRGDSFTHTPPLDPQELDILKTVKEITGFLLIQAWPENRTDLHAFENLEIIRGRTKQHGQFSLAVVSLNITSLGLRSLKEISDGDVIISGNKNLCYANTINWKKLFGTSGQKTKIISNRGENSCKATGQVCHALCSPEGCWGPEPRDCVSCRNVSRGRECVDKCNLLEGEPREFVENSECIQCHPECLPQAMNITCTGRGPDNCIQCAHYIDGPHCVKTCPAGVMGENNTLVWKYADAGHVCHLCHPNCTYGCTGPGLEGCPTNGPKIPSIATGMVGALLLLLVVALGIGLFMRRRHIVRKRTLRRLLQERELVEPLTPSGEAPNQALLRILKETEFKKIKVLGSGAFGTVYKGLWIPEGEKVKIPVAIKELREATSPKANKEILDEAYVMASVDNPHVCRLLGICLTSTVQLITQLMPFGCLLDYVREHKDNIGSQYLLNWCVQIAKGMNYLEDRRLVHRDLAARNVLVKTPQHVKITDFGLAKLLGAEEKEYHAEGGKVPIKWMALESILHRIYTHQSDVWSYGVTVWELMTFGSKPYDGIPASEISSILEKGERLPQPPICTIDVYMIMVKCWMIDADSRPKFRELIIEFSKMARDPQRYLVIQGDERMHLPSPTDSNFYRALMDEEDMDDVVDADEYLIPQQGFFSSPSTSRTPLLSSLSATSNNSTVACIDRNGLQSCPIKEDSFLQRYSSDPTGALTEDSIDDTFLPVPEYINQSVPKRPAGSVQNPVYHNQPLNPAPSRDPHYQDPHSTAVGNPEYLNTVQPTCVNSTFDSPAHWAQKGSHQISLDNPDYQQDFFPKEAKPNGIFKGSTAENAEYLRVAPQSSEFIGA

Compound | pIC50
COc1cc2ncnc(N[C@H](C)c3cccc4ccccc34)c2cc1OC | 6.86
c1ccc(CCNc2ncnc3ccccc23)cc1 | 5.39
COc1ccc2c(N[C@@H](C)c3ccccc3)ncnc2c1 | 5.40
CC[C@@H](Nc1ncnc2cc(OC)c(OC)cc12)c1ccccc1 | 6.63
COc1cc2ncnc(NCc3cccc4ccccc34)c2cc1OC | 6.83
COc1cc2ncnc(NC3CCc4ccccc43)c2cc1OC (stereo not given) | 6.00
COc1cc2ncnc(N[C@H](C)c3ccccc3)c2cc1OC | 8.80
COc1cc2ncnc(NCc3ccccc3)c2cc1OC | 8.00
COc1ccc2c(NCc3ccccc3)ncnc2c1 | 7.24
COc1ccc2c(Nc3ccccc3)ncnc2c1 | 6.92
C[C@H](Nc1ncnc2ccccc12)c1ccccc1 | < 5.00
c1ccc(CNc2ncnc3ccccc23)cc1 | 6.49
COc1cc2ncnc(N[C@@H](C)c3ccccc3)c2cc1OC | 5.42
C[C@@H](Nc1ncnc2ccccc12)c1ccccc1 | 7.07
COc1ccc2c(N[C@H](C)c3ccccc3)ncnc2c1 | 7.54
